The record followed here is patent publication US20070244202A1, “Ampk Activator” (KAO CORPORATION, priority 2004, published 2007).

Test [1] deals with AMPK (AMP-activated protein kinase). As to the kind of experiment: AMPK activation evaluated by phosphorylation of AMPK α and β (Western blot) in mouse hepatocyte line Hepa 1-6. Type of test: cell-based. The note with it: Hepa 1-6 cells. On the procedure:
The AMPK activation effect of resveratrol was evaluated on the basis of phosphorylation of AMPK α and β through the below-described method by use of a mouse hepatocyte line (Hepa 1-6). Mouse hepatocyte cells (Hepa 1-6) were seeded in a 25-cm^2 flask, and cultured in DMEM (+10% FBS, +antibacterial agent) at 37° C. for one to two days. The culture medium was removed when the cells became subconfluent, and the cells were washed with PBS (−), followed by replacement with DMEM (−FBS) and further culturing for one day. After the culture medium was removed, DMEM (−FBS) containing a predetermined amount of resveratrol was added, followed by culturing for 60 minutes. Thereafter, the culture medium was removed, and the cells were washed with PBS (−), followed by addition of 200 μL of a cytolytic solution (10 mmol/L Tris (pH 7.4), 50 mmol/L sodium chloride, 30 mmol/L sodium pyrophosphate, 0.5 mass % Triton X-100, protease inhibitor cocktail (SIGMA P2714), phosphatase inhibitor cocktail-2 (SIGMA P5726)). The resultant cell lysate was collected with a cell scraper. The thus-collected cell lysate was thoroughly homogenized by passing it through a syringe using a 23-G needle (3 times), and then the cell lysate was allowed to stand on ice for 30 minutes. […] After the concentration of the supernatant protein was measured, the protein concentration was regulated to a constant level between samples. […] Thereafter, phospho-AMPK was detected by use of anti-phospho-AMPKα (Thr72) antibody (product of Cell Signaling) or anti-phospho-AMPKβ (Ser108) antibody (product of Cell Signaling) serving as a primary antibody, anti-rabbit-HRP antibody (product of Amersham) serving as a secondary antibody, and phototope-HRP Western Detection System (product of Cell Signaling) serving as a detection reagent. The intensity of the thus-detected band was converted into numerical data (pixels) through image analysis (EDAS 290 image analysis system: KODAK), and the degree of AMPK activation was calculated relative to the control (i.e., group containing no sample), which was taken as 100. […]
(Immunoblotting shows a protein as a band on a membrane.)

For test [2], the system named is lipid metabolism activity (β-oxidation activity). Briefly: Lipid metabolism activating effect: lipid degradation (β-oxidation) activity of liver and skeletal muscle after oral administration. Format: in vivo, mouse. On the procedure:
Seven-week-old Balb/c male mice were divided into two groups, and saline (control) or resveratrol (200 mg/kg body weight) was orally administered for 10 consecutive days. Thereafter, the liver and skeletal muscle (gastrocnemius muscle+soleus muscle) were collected from each of the animals. Each of the thus-collected liver and skeletal muscle was homogenized in buffer (250 mM sucrose, 1 mM EDTA in 10 mM HEPES (pH 7.2)), and insoluble tissue residues were centrifugally separated, whereby a supernatant was obtained. The thus-obtained supernatant was subjected to measurement of protein content, and the protein content was regulated to a constant level between samples. Each of the resultant samples was employed for measurement of lipid metabolism activity (β-oxidation activity). The supernatant protein (100 μg) was reacted with 0.1 μCi [^14C]-palmitic acid at 37° C. for 20 minutes in 200 μL (final volume) of buffer (50 mM Tris-HCl (pH 8.0), 40 mM NaCl, 2 mM KCl, 2 mM MgCl2, 1 mM DTT, 5 mM ATP, 0.2 mM L-carnitine, 0.2 mM NAD, 0.06 mM FAD, 0.12 mM CoA, 3 mM α-cyclodextrin). The reaction was stopped with 200 μL of 0.6 N perchloric acid, and then unreacted [^14C]-palmitic acid was removed three times with hexane (1 mL). Lipid degradation activity was evaluated through measurement of the radioactivity of the aqueous layer.
Lipid degradation activity was calculated relative to that of the control, which was taken as 100. […] As is clear from the test results, resveratrol is effective for activation of lipid metabolism.

For test [3], the system named is AMPK (AMP-activated protein kinase). Briefly: AMPK activation evaluated by phosphorylation of AMPK α and β (Western blot) in mouse muscle cell line C2C12. Type of test: cell-based. On the procedure:
The AMPK activation effect of resveratrol was evaluated on the basis of phosphorylation of AMPK α and β through the below-described method by use of a mouse muscle cell line (C2C12). Mouse muscle cells (C2C12) were seeded in a 25-cm^2 flask, and cultured in DMEM (+10% FBS, +antibacterial agent) at 37° C. for one to two days. The culture medium was removed when the cells reached confluent, and the cells were washed with PBS (−), followed by replacement with DMEM (2 mass % Horse serum) and further culturing for seven to eight days while the culture medium was exchanged every two or three days. Thereafter, the culture medium was removed, and the cells were washed with PBS (−), followed by replacement with DMEM (−FBS) and further culturing for one day. After the culture medium was removed, DMEM (−FBS) containing a predetermined amount of resveratrol was added, followed by culturing for 60 minutes. […] After the concentration of the supernatant protein was measured, the protein concentration was regulated to a constant level between samples. […] Thereafter, phospho-AMPK was detected by use of anti-phospho-AMPKα (Thr72) antibody (product of Cell Signaling) or anti-phospho-AMPKβ (Ser108) antibody (product of Cell Signaling) serving as a primary antibody, anti-rabbit-HRP antibody (product of Amersham) serving as a secondary antibody, and phototope-HRP Western Detection System (product of Cell Signaling) serving as a detection reagent. The intensity of the thus-detected band was converted into numerical data (pixels) through image analysis (EDAS 290 image analysis system: KODAK), and the degree of AMPK activation was calculated relative to the control (i.e., group containing no sample), which was taken as 100. […]

For the next test, the system named is C57BL/6 male mice. Briefly: Efficacy of resveratrol in mice fed a high-fat diet for 24 weeks (body, fat and liver weight, blood analysis). Format: in vivo, mouse. On the procedure:
Seven-week-old C57BL/6 male mice (CLEA Japan, Inc.) were employed, and the animals were divided into three groups, each containing 10 to 15 animals. Twenty-four weeks after initiation of the test, body weight was measured, and blood was collected under anesthesia and non-fasting conditions for measurement of plasma glucose, cholesterol, insulin, and leptin. In addition, visceral fat weight (epididymal fat, retroperitoneal fat, and perirenal fat) and liver weight were measured. In Example 3, resveratrol manufactured by Cayman was employed. [table]

Where [4] appears, read: 0.2% resveratrol in high-fat diet vs high-fat diet, P<0.01.
[5] abbreviates: 0.2% resveratrol in high-fat diet vs high-fat diet, P<0.05.

With `Oc1ccc(/C=C/c2cc(O)cc(O)c2)cc1` [Resveratrol, 3,4′,5-trihydroxy-trans-stilbene], the “Phospho-AMPKα (degree of AMPK activation relative to control taken as 100)” value in test [1] (resveratrol 150 μmol/L, 60 minutes, anti-phospho-AMPKα (Thr72) antibody, control = 100) came to 538. Further, in test [1] (resveratrol 150 μmol/L, 60 minutes, anti-phospho-AMPKβ (Ser108) antibody, control = 100), the “Phospho-AMPKβ (degree of AMPK activation relative to control taken as 100)” value is reported as 168. In addition, the “AMPK activation effect (in words)” value in test [1] (summary of Table 1) is “potent AMPK activation effect”. In test [2] (Balb/c male mice, resveratrol 200 mg/kg body weight orally for 10 consecutive days, gastrocnemius + soleus muscle homogenate, [14C]-palmitic acid, control = 100), the “Lipid degradation activity (β-oxidation activity) of skeletal muscle relative to control taken as 100” value came out at 243. In addition, in test [2] (Balb/c male mice, resveratrol 200 mg/kg body weight orally for 10 consecutive days, liver homogenate, [14C]-palmitic acid, control = 100), the “Lipid degradation activity (β-oxidation activity) of liver relative to control taken as 100” value is 323. Also, in test [2] (resveratrol 200 mg/kg orally for 10 days vs saline control, liver p<0.001, muscle p<0.001), the “Lipid degradation activity (β-oxidation activity) of the liver and skeletal muscle (in words)” value was “considerably increases”. The “Phospho-AMPKα (degree of AMPK activation relative to control taken as 100)” value in test [3] (C2C12 cells, resveratrol 150 μmol/L, 60 minutes, anti-phospho-AMPKα (Thr72) antibody, control = 100) came out at 848. Also, the “Phospho-AMPKβ (degree of AMPK activation relative to control taken as 100)” value in test [3] (C2C12 cells, resveratrol 150 μmol/L, 60 minutes, anti-phospho-AMPKβ (Ser108) antibody, control = 100) turned out to be 425. In addition, the “AMPK activation effect in muscle cells (in words)” value in test [3] (summary of Table 2) was “potent AMPK activation effect”. In addition, the “Blood insulin level, group 3 compared with group 2 (in words)” value in the test on C57BL/6 male mice (0.2% resveratrol in high-fat diet vs high-fat diet) is listed as “lower than that in group 2”. For the same molecule, the “Body weight, group 3 compared with group 2 (in words)” value in the test on C57BL/6 male mice (0.2% resveratrol in high-fat diet vs high-fat diet, P<0.001) is on record as “significantly lower than that in group 2”. In the test with C57BL/6 male mice (setting [4]), the “Blood leptin level, group 3 compared with group 2 (in words)” value was “significantly lower than that in group 2” and the “Visceral fat weight, group 3 compared with group 2 (in words)” value is recorded as “significantly lower than that in group 2”. Further, in the test with C57BL/6 male mice (setting [5]), the “Liver weight, group 3 compared with group 2 (in words)” value is “significantly lower than that in group 2” and the “Total cholesterol level, group 3 compared with group 2 (in words)” value is “significantly lower than that in group 2”. The “Blood glucose level, group 3 compared with group 2 (in words)” value with C57BL/6 male mice (0.2% resveratrol in high-fat diet vs high-fat diet, P<0.1) is recorded as “lower than that in group 2”. The Visceral fat weight with C57BL/6 male mice (Group 3: high-fat diet with 0.2% resveratrol, epididymal, retroperitoneal and perirenal fat, group 1 0.88, group 2 2.17) was found to be 1.00 g. Besides, the Liver weight with C57BL/6 male mice (Group 3: high-fat diet with 0.2% resveratrol, group 1 1.34, group 2 1.62) is 1.39 g. In addition, the Body weight with C57BL/6 male mice (Group 3: high-fat diet with 0.2% resveratrol, group 1 (low-fat) 32.2, group 2 (high-fat) 38.8) was determined as 32.1 g. The same molecule returned a Leptin in the test with C57BL/6 male mice (Group 3: high-fat diet with 0.2% resveratrol, plasma, non-fasting, group 1 1.43, group 2 6.19) of 1.79 ng/mL. For the same molecule, in the test on C57BL/6 male mice (Group 3: high-fat diet with 0.2% resveratrol, plasma, non-fasting, group 1 2.52, group 2 3.38), the Insulin is listed as 2.03 ng/mL. The Total cholesterol in the test on C57BL/6 male mice (Group 3: high-fat diet with 0.2% resveratrol, plasma, non-fasting, group 1 58, group 2 76) turned out to be 60 mg/dL. In addition, the Glucose with C57BL/6 male mice (Group 3: high-fat diet with 0.2% resveratrol, plasma, non-fasting, group 1 133, group 2 191) is 162 mg/dL.
